For assay [1], the target named is T1, Human GPR40 (Homo sapiens, UniProt O14842). Kind of assay: FLIPR assay, agonist-induced calcium mobilization. The format is cell-based. Also noted: expressed in transfected cells. To be noted: GPR40/CHO NFAT BLA cells. On the procedure: (§1) Human and mouse GPR40 stable cell-lines were generated in CHO cells stably expressing NFAT BLA (Beta-lactamase). A human GPR40 stable cell-line was generated in HER cells stably expressing the aequorin expressing reporter. The expression plasmids were transfected using lipofectamine (Life Technologies) following manufacturer's instructions. Stable cell-lines were generated following drug selection.
FLIPR (Fluorimetric Imaging Plate Reader, Molecular Devices) assays were performed to measure agonist-induced calcium mobilization of the stable clones. For the FLIPR assay, one day before assay, GPR40/CHO NFAT BLA cells were seeded into black-wall-clear-bottom 384-well plates (Costar) at 1.4×10e4 cells/20 μL medium/well. The cells were incubated with 20 μl/well of the assay buffer (HMS, 0.1% BSA, 20 mM HEPES, 2.5 mM probenecid, pH 7.4) containing 8 μM fluo-4, AM, 0.08% pluronic acid at room temperature for 100 minutes. Fluorescence output was measured using FLIPR. Compounds were dissolved in DMSO and diluted to desired concentrations with assay buffer. 13.3 μL/well of compound solution was added.
On the technique in general: A change in cytosolic calcium serves as a functional read-out for many receptors and channels.

Assay [2] has as its target T1, Human GPR40. Kind of assay: Inositol Phosphate Turnover (IP1) Assay. Type of assay: cell-based. Also noted: expressed in transfected cells; host or cells: HEK cells (stably expressing the aequorin reporter). To be noted: HEK cells stably expressing human GPR40, CisBio IP-One kit. On the procedure:
as §1
The assay is performed in 384-well format. HEK cells stably expressing human GPR40 are plated at 15,000 cells per well in growth medium (DMEM/10% fetal calf serum). Cell plates are then incubated 16 hours at 37 degrees in a 5% CO2 incubator.
Measurement of Inositol Phosphate Turnover (IP1) is performed using the CisBio IP-One kit (Part number 62IPAPEB). After the 16 hour incubation, the cells are washed with HEPES buffer and 10 ul of stimulation buffer (prepared as described in the kit) is added to each well. In a separate plate, compounds are diluted in DMSO (400-fold over the final concentration in the assay well) and 25 nl is acoustically transferred to the appropriate well in the assay cell plate. The plates are then incubated for 60 minutes at 37 degrees. 10 ul of detection buffer (also prepared as described in the IP-One kit) is added to each well and the plates are incubated for 60 minutes in the dark. The plates are then read in a Perkin Elmer EnVision or equivalent reader able to measure FRET. Fluorescent ratio of emission at 665 and 620 nm is then converted to IP1 concentration by back calculating from an IP1 standard curve prepared at the time of the assay.

T1 sequence (O14842 whole entry): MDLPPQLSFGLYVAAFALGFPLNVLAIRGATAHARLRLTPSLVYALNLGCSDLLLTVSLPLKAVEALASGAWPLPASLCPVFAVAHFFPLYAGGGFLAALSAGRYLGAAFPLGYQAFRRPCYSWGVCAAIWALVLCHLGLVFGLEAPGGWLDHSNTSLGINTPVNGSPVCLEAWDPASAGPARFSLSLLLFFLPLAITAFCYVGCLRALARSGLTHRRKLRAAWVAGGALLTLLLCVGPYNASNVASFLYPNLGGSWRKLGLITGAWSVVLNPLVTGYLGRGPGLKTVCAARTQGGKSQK

In the case of `O=C(O)[C@H]1[C@@H]2Cc3cc(OCc4ccc5c(c4)C(c4ccccc4C(F)(F)F)CC54CC4)ncc3[C@@H]21` (stereo partly drawn) [Example 1, (5aR,6S,6aS)-3-((3′-(2-(trifluoromethyl)phenyl)-2′,3′-dihydrospiro[cyclopropane-1,1′-inden]-5′-yl)methoxy)-5,5a,6,6a-tetrahydrocyclopropa[4,5]cyclopenta[1,2-c]pyridine-6-carboxylic acid], the 50% effective concentration (EC50) in assay [1] was determined as 32.6 nM; in assay [2], 11.4 nM.
For `O=C1CC(c2ccccc2C(F)(F)F)c2cc(COc3cc4c(cn3)[C@H]3[C@@H](C4)[C@@H]3C(=O)O)ccc21` (stereo partly drawn) [Example 2, (5aR,6S,6aS)-3-((1-oxo-3-(2-(trifluoromethyl)-phenyl)-2,3-dihydro-1H-inden-5-yl)methoxy)-5,5a,6,6a-tetrahydro-cyclopropa[4,5]cyclopenta [1,2-c]pyridine-6-carboxylic acid], the figures for the EC50 in assay [1] and in assay [2] were 50.5 nM and 47.4 nM, respectively.
On the same counts, the results for `CC1(C)CC(c2ccccc2C(F)(F)F)c2cc(COc3cc4c(cn3)[C@H]3[C@@H](C4)[C@@H]3C(=O)O)ccc21` (stereo partly drawn) [Example 3, (5aR,6S,6aS)-3-((1,1-dimethyl-3-(2-(trifluoromethyl)phenyl)-2,3-dihydro-1H-inden-5-yl)methoxy)-5,5a,6,6a-tetrahydrocyclopropa[4,5]cyclopenta[1,2-c]pyridine-6-carboxylic acid] are 9.28 nM and 769 nM.
Regarding `CC1(C)C=C(c2ccccc2C(F)(F)F)c2cc(COc3cc4c(cn3)[C@H]3[C@@H](C4)[C@@H]3C(=O)O)ccc21` [Example 4], the EC50 in assay [1] amounted to 13.7 nM; in assay [2], 18 nM.
With `CC1CC(c2ccccc2C(F)(F)F)c2cc(COc3cc4c(cn3)[C@H]3[C@@H](C4)[C@@H]3C(=O)O)ccc21` (stereo partly drawn) [Example 5, (5aR,6S,6aS)-3-((1-methyl-3-(2-(trifluoromethyl)phenyl)-2,3-dihydro-1H-inden-5-yl)methoxy)-5,5a,6,6a-tetrahydrocyclopropa[4,5]cyclopenta[1,2-c]pyridine-6-carboxylic acid], the EC50 in assay [1] is 20.8 nM; in assay [2], 21.6 nM.
Consider `O=C(O)[C@H]1[C@@H]2Cc3cc(OCc4ccc5c(c4)C(c4ccccc4C(F)(F)F)CC54CCC4)ncc3[C@@H]21` (stereo partly drawn) [Example 6, (5aR,6S,6aS)-3-((3′-(2-(trifluoromethyl)phenyl)-2′,3′-dihydrospiro[cyclobutane-1,1′-inden]-5′-yl)methoxy)-5,5a,6,6a-tetrahydrocyclopropa[4,5]cyclopenta[1,2-c]pyridine-6-carboxylic acid], for which the concentration giving a half-maximal response (EC50) came to 22.9 nM in assay [1] and 22.6 nM in assay [2].
In the same order, the values of `O=C(O)[C@H]1[C@@H]2Cc3cc(OCc4ccc5c(c4)C(c4ccccc4C(F)(F)F)CC54COC4)ncc3[C@@H]21` (stereo partly drawn) [Example 7, (5aR,6S,6aS)-3-((3-(2-(trifluoromethyl)phenyl)-2,3-dihydrospiro[indene-1,3′-oxetan]-5-yl)methoxy)-5,5a,6,6a-tetrahydrocyclopropa[4,5]cyclopenta[1,2-c]pyridine-6-carboxylic acid] are 32.9 nM and 35.3 nM.
Consider `CC1(C)OCC2(CO1)CC(c1ccccc1C(F)(F)F)c1cc(COc3cc4c(cn3)[C@H]3[C@@H](C4)[C@@H]3C(=O)O)ccc12` (stereo partly drawn) [Example 8, (5aR,6S,6aS)-3-((2,2-dimethyl-3′-(2-(trifluoromethyl)phenyl)-2′,3′-dihydrospiro[[1,3]dioxane-5,1′-inden]-5′-yl)methoxy)-5,5a,6,6a-tetrahydrocyclopropa[4,5]cyclopenta[1,2-c]pyridine-6-carboxylic acid], for which the EC50 in assay [1] was determined as 12.3 nM; in assay [2] it was 21.1 nM.
Consider `CC1(C)CC(c2ccccc2)c2cc(COc3cc4c(cn3)[C@H]3[C@@H](C4)[C@@H]3C(=O)O)ccc21` (stereo partly drawn) [Example 9, (5aR,6S,6aS)-3-((1,1-dimethyl-3-phenyl-2,3-dihydro-1H-inden-5-yl)methoxy)-5,5a,6,6a-tetrahydrocyclopropa[4,5]cyclopenta[1,2-c]pyridine-6-carboxylic acid], for which the values for the EC50 in assay [1] and in assay [2] were 16.9 nM and 22.4 nM, respectively.
With `CC1(C)CC(c2c(F)cccc2F)c2cc(COc3cc4c(cn3)[C@H]3[C@@H](C4)[C@@H]3C(=O)O)ccc21` (stereo partly drawn) [Example 10, (5aR,6S,6aS)-3-((3-(2,6-difluorophenyl)-1,1-dimethyl-2,3-dihydro-1H-inden-5-yl)methoxy)-5,5a,6,6a-tetrahydro-cyclopropa[4,5]cyclopenta [1,2-c]pyridine-6-carboxylic acid], the EC50 in assay [1] worked out at 4.9 nM; in assay [2], 38.9 nM.
Take `CC1(C)CC(c2ccccc2Cl)c2cc(COc3cc4c(cn3)[C@H]3[C@@H](C4)[C@@H]3C(=O)O)ccc21` (stereo partly drawn) [Example 11, (5aR,6S,6aS)-3-((3-(2-chlorophenyl)-1,1-dimethyl-2,3-dihydro-1H-inden-5-yl)methoxy)-5,5a,6,6a-tetrahydro-cyclopropa[4,5]cyclopenta [1,2-c]pyridine-6-carboxylic acid]: the figures for the EC50 in assay [1] and in assay [2] were 17.8 nM and 35.1 nM, respectively.
With `CC1(C)CC(c2ccccc2S(C)(=O)=O)c2cc(COc3cc4c(cn3)[C@H]3[C@@H](C4)[C@@H]3C(=O)O)ccc21` (stereo partly drawn) [Example 13, (5aR,6S,6aS)-3-((1,1-dimethyl-3-(2-(methyl-sulfonyl)phenyl)-2,3-dihydro-1H-inden-5-yl)methoxy)-5,5a,6,6a-tetrahydrocyclopropa[4,5] cyclopenta[1,2-c]pyridine-6-carboxylic acid], the EC50 came out at 22.6 nM in assay [1] and 40.6 nM in assay [2].
In the same order, the values of `COc1ncccc1C1CC(C)(C)c2ccc(COc3cc4c(cn3)[C@H]3[C@@H](C4)[C@@H]3C(=O)O)cc21` (stereo partly drawn) [Example 14, (5aR,6S,6aS)-3-((3-(2-methoxypyridin-3-yl)-1,1-dimethyl-2,3-dihydro-1H-inden-5-yl)methoxy)-5,5a,6,6a-tetrahydro-cyclopropa[4,5]cyclopenta [1,2-c]pyridine-6-carboxylic acid] are 11.6 nM and 21.8 nM.
Turning to `COc1nccc(C)c1C1CC(C)(C)c2ccc(COc3cc4c(cn3)[C@H]3[C@@H](C4)[C@@H]3C(=O)O)cc21` (stereo partly drawn) [Example 15, (5aR,6S,6aS)-3-((3-(2-methoxy-4-methylpyridin-3-yl)-1,1-dimethyl-2,3-dihydro-1H-inden-5-yl)methoxy)-5,5a,6,6a-tetrahydrocyclopropa[4,5] cyclopenta[1,2-c]pyridine-6-carboxylic acid], the EC50 in assay [1] came out at 8.6 nM; in assay [2], 7.77 nM.
Take `Cn1cnc2cccc(C3CC(C)(C)c4ccc(COc5cc6c(cn5)[C@H]5[C@@H](C6)[C@@H]5C(=O)O)cc43)c21` (stereo partly drawn) [Example 16, (5aR,6S,6aS)-3-((1,1-dimethyl-3-(1-methyl-1H-benzo[d]imidazol-7-yl)-2,3-dihydro-1H-inden-5-yl)methoxy)-5,5a,6,6a-tetrahydrocyclopropa[4,5] cyclopenta[1,2-c]pyridine-6-carboxylic acid]: the EC50 in assay [1] worked out at 7.29 nM; in assay [2], 27.7 nM.
Take `CC1(C)CC(c2ccccc2F)c2cc(COc3cc4c(cn3)[C@H]3[C@@H](C4)[C@@H]3C(=O)O)ccc21` (stereo partly drawn) [Example 17, (5aR,6S,6aS)-3-((1,1-dimethyl-3-(2-fluorophenyl)-2,3-dihydro-1H-inden-5-yl)methoxy)-5,5a,6,6a-tetrahydrocyclopropa[4,5] cyclopenta[1,2-c]pyridine-6-carboxylic acid]: the figures for the EC50 in assay [1] and in assay [2] were 21.7 nM and 43.7 nM, respectively.

Usually EC50 stands for the concentration that produces a half-maximal response.
